Where two headings read alike, the source gives them in different places.
Experiments:
[1] = target: T1, CDK6/Cyclin D1 (Homo sapiens (Human), UniProt Q00534); assay: biochemical
[2] = test system: OVCAR3 mouse tumor xenograft; assay: Ovcar3 tumor model (mouse xenograft); type: in vivo; settings: NSG mice; 10 mpk PO QD, 50 mpk PO QD and 50 mpk PO BID, 14 days
Protocol: Ovcar3 tumor cell line, purchased from ATCC (ATCC HTB-161™) was cultured in RPMI1640 (1×) media (Gibco™ cat #11875-093) with 10% FBS (Gibco™ cat #26140-079). To establish a Ovcar3 xenograft model, 5×10^6 cells per mouse was implanted subcutaneously into right hind flank NSG mice (#5557-NOD.cg-PrkdcJackson Lab). Cells were suspended in 50% matrigel (Cultrex Basement Membrane Extract (BME), Trevigen's Basement Membrane Matrix) and 50% RPMI1640 (1×) media (Gibco™ cat #11875-093) serum free media prior to implantation.
Animals were randomized 39 days after cells implantation with each group consisted of 4 mice. Treatment began when tumors reached 100 mm^3-190 mm^3 in size. Test compounds were prepared in 40% Captisol and dosed PO at 10 and 50 mg/kg QD or at 50 mg/kg BID as a suspension for 14 days. Animals were taken down at designated time. Mice receiving no drugs were given vehicle QD or BID for 14 days. Tumor volumes were measured once prior to randomization with an electric caliper, with tumor volumes were calculated using Length×Width×Width/2 formulation. Tumor volumes were measured twice a week with an electric caliper, with tumor volumes calculated using Length×Width×Width/2 formula. Animal weights were recorded twice weekly.

[3] = test system: HCC1806 mouse tumor xenograft; assay: HCC1806 tumor model (mouse xenograft); type: in vivo; settings: NU/NU female mice; 30, 50 and 75 mpk PO BID, 14 days
Protocol: • Source: HCC1806 (# CRL 2335, ATCC, Manassas, Va.)
The HCC1806 tumor cell line was cultured in RPMI1640 media supplemented with 10% Fetal Bovine Serum (FBS). To establish a HCC1806 xenograft model, 5×10^6 cells per mouse were implanted subcutaneously into right hind flank NU/NU female mice. Cells were suspended in 50% Cultrex Basement Membrane Extract and 50% RPMI 1640 media serum free media prior to implantation.
Animals were randomized 7 days after cells implantation with each group consisting of 13 mice. Treatment began when tumors reached 100 mm^3 to 170 mm^3 in size on Day 7. Test compounds were prepared in 0.1% Tween, 0.5% Methyl cellulose in water and dosed PO at 30, 50, and 75 mg/kg as a suspension BID for 14 days. Mice receiving no drugs were given vehicle BID for 14 days. Tumor volumes were measured twice a week with an electric caliper, with tumor volumes calculated using Length×Width×Width/2 formula. Animal weights were recorded twice weekly.

[4] = target: CDK2/Cyclin E1 (Homo sapiens (Human), UniProt P24941); assay: biochemical
Protocol: The assay was initiated with the addition of ATP, following a fifteen minutes pre-incubation of enzyme and inhibitor at room temperature in the reaction mixture. The reaction was stopped after 45 minutes at room temperature by the addition of 50 μL of 80 mM EDTA, pH 7.5.

[5] = target: T1, CDK6/Cyclin D1; settings: read-out: CDK6_Ki; non-phosphorylated CDK6/Cyclin D1, 2 mM ATP

T1 sequence (Q00534 whole entry): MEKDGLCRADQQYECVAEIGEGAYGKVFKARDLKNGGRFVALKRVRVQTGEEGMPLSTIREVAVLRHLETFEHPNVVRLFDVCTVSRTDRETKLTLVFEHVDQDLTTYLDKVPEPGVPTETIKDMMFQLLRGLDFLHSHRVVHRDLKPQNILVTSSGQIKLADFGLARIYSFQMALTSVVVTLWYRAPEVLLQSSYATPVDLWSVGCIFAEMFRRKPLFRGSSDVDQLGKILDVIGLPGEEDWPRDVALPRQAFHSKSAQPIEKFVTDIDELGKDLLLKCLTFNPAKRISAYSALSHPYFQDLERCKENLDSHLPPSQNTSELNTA
T1 sequence (P24385 whole entry partner): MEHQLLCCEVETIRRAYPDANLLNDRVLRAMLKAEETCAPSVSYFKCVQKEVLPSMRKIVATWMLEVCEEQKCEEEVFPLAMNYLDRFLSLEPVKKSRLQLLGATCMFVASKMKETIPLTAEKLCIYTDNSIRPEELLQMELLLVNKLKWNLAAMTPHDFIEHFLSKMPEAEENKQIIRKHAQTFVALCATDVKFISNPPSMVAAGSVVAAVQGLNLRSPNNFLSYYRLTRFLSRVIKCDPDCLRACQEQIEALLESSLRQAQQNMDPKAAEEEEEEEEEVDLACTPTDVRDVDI

| Ki [1] | SMILES | other results |
| --- | --- | --- |
| 5.69 nM | C[C@@]1(O)CCC[C@H]1n1c(=O)ccc2cnc(NC3CCN(S(=O)(=O)NC[C@@H]4CCCO4)CC3)nc21 (stereo in doubt) [Example 62] |  |
| 16.5 nM | C[C@]1(O)CCC[C@@H]1n1c(=O)ccc2cnc(NC3CCN(S(=O)(=O)NC[C@@H]4CCCO4)CC3)nc21 (stereo in doubt) [Example 63] |  |
| 4.69 nM | C[C@@]1(O)CCC[C@H]1n1c(=O)ccc2cnc(NC3CCN(S(=O)(=O)NC[C@H]4CCCO4)CC3)nc21 (stereo in doubt) [Example 64] |  |
| 25.6 nM | C[C@]1(O)CCC[C@@H]1n1c(=O)ccc2cnc(NC3CCN(S(=O)(=O)NC[C@H]4CCCO4)CC3)nc21 (stereo in doubt) [Example 65] |  |
| 1.07 nM | Cc1cc2cnc(NC3CCN(S(=O)(=O)NC[C@@H]4CCCO4)CC3)nc2n([C@@H]2CCC[C@@]2(C)O)c1=O (stereo in doubt) [Example 100] |  |

Continued, molecule first:

| SMILES | Ki [1] | other results |
| --- | --- | --- |
| C[C@@]1(O)CCC[C@H]1n1c(=O)ccc2cnc(NC3CCN(S(C)(=O)=O)CC3)nc21 [Example 2, 8-[(1R,2R)-2-hydroxy-2-methylcyclopentyl]-2-{[1-(methylsulfonyl)piperidin-4-yl]amino}pyrido[2,3-d]pyrimidin-7(8H)-one] |  | inhibition of tumor growth (mm^3) [2]: dose dependent inhibition of tumor growth; inhibition of tumor growth (mm^3) [3]: dose dependent inhibition of tumor growth |
| Cc1cc2cnc(NC3CCN(S(=O)(=O)NC[C@H]4CCCO4)CC3)nc2n([C@H]2CCC[C@]2(C)O)c1=O (stereo in doubt) [Example 103] | 19.6 nM |  |
| Cc1cc2cnc(NC3CCN(S(=O)(=O)NC[C@@H]4CCCO4)CC3)nc2n([C@H]2CCC[C@]2(C)O)c1=O (stereo in doubt) [Example 101] | 23.5 nM |  |
| CNS(=O)(=O)N1CCC(Nc2ncc3ccc(=O)n([C@@H]4CCC[C@H]4O)c3n2)CC1 [Example 55] |  | Ki [4]: 4.66 nM |
| Cc1cc2cnc(NC3CCN(S(=O)(=O)NC[C@H]4CCCO4)CC3)nc2n([C@@H]2CCC[C@@]2(C)O)c1=O (stereo in doubt) [Example 102] | 0.8 nM |  |
| C[C@@]1(O)CCC[C@H]1n1c(=O)ccc2cnc(NC3CCN(S(=O)(=O)C4CCS(=O)(=O)C4)CC3)nc21 (single isomer, unassigned) [Example 71] |  | Ki [5]: 1.55 nM |
